# Marks after values point to notes of the source that are not given here.
# Assays:
# [1] = test system: R. equi isolates; details: Riesenberg et al. 2013; cited from earlier work
# [2] = Repeated dose IV LG or FG: indices of renal injury and tolerability in foals
# Description: Subsequently, twelve healthy foals were administered either LG or FG at 6.6 mg/kg IV q 24 hours for 7 doses, and urinary protein, creatinine, γ-glutamyltransferase, and electrolytes were measured on days 0, 3 and 7 to quantify renal injury. Concentrations of gentamicin were measured using HPLC-MS.
# Each dose was diluted in 250 ml of sterile 0.9% saline and administered over 15 minutes via an indwelling 14 G catheter placed in a jugular vein. Blood samples for plasma separation and measurement of gentamicin concentrations were obtained on day 1 and on day 7 at the times listed for study 1. Bronchoalveolar lavage fluid was collected 2, 6 and 24 hours after the end of infusion on day 7. Urine was collected the day prior to the first drug dose (day 0) and again 2 hours after the end of the infusion on days 3 and 7. Foals were sedated with xylazine hydrochloride (1.1 mg/kg bwt IV) and anesthetized with ketamine (2.2 mg/kg bwt IV) to allow passage of a urinary catheter using aseptic techniques. Urinalysis was performed and urine and concurrently obtained plasma samples were submitted for measurement of creatinine, γ-glutamyltransferase (GGT), protein, calcium, chloride, magnesium, sodium, and potassium concentrations. Fractional excretion of electrolytes, urinary GGT to creatinine ratio, and urinary protein to creatinine ratios were calculated. Prior to analysis for gentamicin concentration by LC-MS, urine and plasma samples were centrifuged at 400×g for 10 minutes and the supernatant was frozen at −80° C. until assayed.
# Normality and equality of variance of the data were assessed with use of the Shapiro-Wilk and Levene tests, respectively. Data that were not normally distributed were log or rank transformed. The paired t test or the Wilcoxon rank sum test was used to compare IV pharmacokinetic variables between LF and FG. The effects of drug (LG vs FG), administration route (IV vs nebulized) and the interactions between drug and administration route on PELF and BAL cell pharmacokinetic variables were assessed using a two-way ANOVA for repeated measurement. For study 2, the effects of drug (LG vs FG), time (day 0, day 3, and day 7), and the interactions between drug and time on renal indices were assessed using a two-way ANOVA with one factor repetition (time). When warranted, multiple pairwise comparisons were done by use of the Holm-Sidak test. The paired t test or the Wilcoxon rank sum test was used to compare IV pharmacokinetic variables obtained on day 1 to those obtained on day 7. Significance was set at P<0.05.
# [3] = repeated daily IV dosing, 6 foals per group
substance,measurement,setting,value
gentamicin sulfate [Free Gentamicin],MIC that inhibits at least 90% (MIC90) of R. equi isolates,[1],0.5 µg/mL
same,FE Ca^2+,[2]; Day 0 (before first dose),3.5 ± 3.4%
same,FE Cl^−,[2]; Day 0 (before first dose),0.60 ± 0.29%
same,FE K^+,[2]; Day 0 (before first dose),10.1 ± 4.9%
same,FE Mg^2+,[2]; Day 0 (before first dose),13.9 ± 8.91%
same,FE Na^+,[2]; Day 0 (before first dose),0.28 ± 0.4^a %
same,Plasma creatinine,[2]; Day 0 (before first dose),116.39 ± 20.48 µmol/L
same,USG (urine specific gravity),[2]; Day 0 (before first dose),1.003 ± 0.002
same,Urine pH,[2]; Day 0 (before first dose),7.2 ± 0.7
same,FE Ca^2+,[2]; Day 3,1.9 ± 1.1%
same,FE Cl^−,[2]; Day 3,0.6 ± 0.2%
same,FE K^+,[2]; Day 3,18.4 ± 12.2%
same,FE Mg^2+,[2]; Day 3,11.2 ± 6.5%
same,FE Na^+,[2]; Day 3,0.12 ± 0.05^a %
same,Plasma creatinine,[2]; Day 3,120.81 ± 21.41 µmol/L
same,USG (urine specific gravity),[2]; Day 3,1.008 ± 0.008
same,Urine pH,[2]; Day 3,6.3 ± 0.8
same,difference from baseline (day 0) in urine pH,[2]; Day 3,−0.83*
same,FE Ca^2+,[2]; Day 7,1.6 ± 1.4%
same,FE Cl^−,[2]; Day 7,0.78 ± 0.19%
same,FE K^+,[2]; Day 7,16.8 ± 10.6%
same,FE Mg^2+,[2]; Day 7,9.8 ± 4.7%
same,FE Na^+,[2]; Day 7,0.27 ± 0.12^b %
same,Plasma creatinine,[2]; Day 7,117.87 ± 24.79 µmol/L
same,USG (urine specific gravity),[2]; Day 7,1.002 ± 0.001
same,Urine pH,[2]; Day 7,6.3 ± 0.3
same,difference from baseline (day 0) in urine pH,[2]; Day 7,−1.67*
same,casts on urine sediment analysis,"[2]; day 7, 6 foals per group",One foal
same,mild self-limiting diarrhea during treatment,[2]; [3],One foal
same,thrombophlebitis,[2]; [3],2 foals

# From patent US20160193148A1, “LIPOSOMAL FORMULATIONS FOR THE TREATMENT OF BACTERIAL INFECTIONS” (UNIVERSITY OF GEORGIA RESEARCH FOUNDATION, INC., priority 2013, published 2016)
